Experimental data published in ChEMBL document CHEMBL1201862, “PubChem BioAssay data set” (2004).
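A five-concentration, 48-hour dose response in 96-well plates underlies each endpoint, interpolated linearly between surrounding concentrations. At the GI50, growth is halved.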 Active and inactive are the calls of the source. Rule as the data show it: active = GI50 up to about 1.1 µM and inactive = higher.

How the values were obtained:
Assay in all cases: growth of human tumour cells (NCI), 48 h
NCI-H460 = test system: NCI-H460
SNB-75 = test system: SNB-75
SN12C = test system: SN12C
HCT-116 = test system: HCT-116
HCT-15 = test system: HCT-15
SK-MEL-5 = test system: SK-MEL-5
MOLT-4 = test system: MOLT-4
T47D = test system: T47D
SNB-19 = test system: SNB-19
NCI/ADR-RES = test system: NCI/ADR-RES
MDA-MB-435 = test system: MDA-MB-435
CCRF-CEM = test system: CCRF-CEM
DU-145 = test system: DU-145
786-0 = test system: 786-0
TK-10 = test system: TK-10
SW-620 = test system: SW-620
K562 = test system: K562
HOP-92 = test system: HOP-92
IGROV-1 = test system: IGROV-1
Hs-578T = test system: Hs-578T
KM12 = test system: KM12
SK-OV-3 = test system: SK-OV-3
OVCAR-8 = test system: OVCAR-8
UACC-257 = test system: UACC-257
M14 = test system: M14
RPMI-8226 = test system: RPMI-8226
MCF7 = test system: MCF7
PC-3 = test system: PC-3
SK-MEL-2 = test system: SK-MEL-2
OVCAR-4 = test system: OVCAR-4
ACHN = test system: ACHN
A498 = test system: A498
HL-60 = test system: HL-60
NCI-H23 = test system: NCI-H23
OVCAR-3 = test system: OVCAR-3
CAKI-1 = test system: CAKI-1
BT-549 = test system: BT-549
OVCAR-5 = test system: OVCAR-5
SF-295 = test system: SF-295
SF-539 = test system: SF-539
SF-268 = test system: SF-268
Malme-3M = test system: Malme-3M
UO-31 = test system: UO-31
A549 = test system: A549
HCC 2998 = test system: HCC 2998
NCI-H522 = test system: NCI-H522
RXF 393 = test system: RXF 393
COLO 205 = test system: COLO 205
EKVX = test system: EKVX
HOP-62 = test system: HOP-62
LOX IMVI = test system: LOX IMVI
NCI-H226 = test system: NCI-H226
SR = test system: SR
UACC-62 = test system: UACC-62
HT-29 = test system: HT-29
SK-MEL-28 = test system: SK-MEL-28
MDA-MB-231 = test system: MDA-MB-231
U-251 = test system: U-251

Structure (SMILES): O=c1oc(-c2ccc(O)cc2)cc2cc(O)ccc12
- GI50 (NCI-H460): 22.6 µM (inactive)
- GI50 (SNB-75): 31.6 µM (inactive)
- GI50 (SN12C): 17.2 µM (inactive)
- GI50 (HCT-116): 21.2 µM (inactive)
- GI50 (HCT-15): 43.2 µM
- GI50 (SK-MEL-5): 11.2 µM (inactive)
- GI50 (MOLT-4): 18.5 µM (inactive)
- GI50 (T47D): 19.9 µM (inactive)
- GI50 (SNB-19): 20.6 µM (inactive)
- GI50 (NCI/ADR-RES): 19.7 µM (inactive)
- GI50 (MDA-MB-435): 27.4 µM (inactive)
- GI50 (CCRF-CEM): 20.4 µM (inactive)
- GI50 (DU-145): 39 µM (inactive)
- GI50 (786-0): 39.4 µM (inactive)
- GI50 (TK-10): 41.6 µM (inactive)
- GI50 (SW-620): 25.7 µM (inactive)
- GI50 (K562): 13.2 µM (inactive)
- GI50 (HOP-92): 21.7 µM (inactive)
- GI50 (IGROV-1): 19.9 µM (inactive)
- GI50 (Hs-578T): 23.6 µM (inactive)
- GI50 (KM12): 24.8 µM (inactive)
- GI50 (SK-OV-3): 26.3 µM (inactive)
- GI50 (OVCAR-8): 41.9 µM (inactive)
- GI50 (UACC-257): 52 µM (inactive)
- GI50 (M14): 24.2 µM (inactive)
- GI50 (RPMI-8226): 48.8 µM (inactive)
- GI50 (MCF7): 20.6 µM (inactive)
- GI50 (PC-3): 25.3 µM (inactive)
- GI50 (SK-MEL-2): 33.3 µM (inactive)
- GI50 (OVCAR-4): 32.7 µM (inactive)
- GI50 (ACHN): 34.9 µM (inactive)
- GI50 (A498): 14.7 µM (inactive)
- GI50 (HL-60): 18.5 µM (inactive)
- GI50 (NCI-H23): 20.9 µM (inactive)
- GI50 (OVCAR-3): 27.5 µM (inactive)
- GI50 (CAKI-1): 29.1 µM (inactive)
- GI50 (BT-549): 23 µM (inactive)
- GI50 (OVCAR-5): 43.2 µM (inactive)
- GI50 (SF-295): 39.4 µM (inactive)
- GI50 (SF-539): 32.2 µM (inactive)
- GI50 (SF-268): 26.5 µM (inactive)
- GI50 (Malme-3M): 30.1 µM (inactive)
- GI50 (UO-31): 13.3 µM (inactive)
- GI50 (A549): 41.5 µM (inactive)
- GI50 (HCC 2998): 23.1 µM (inactive)
- GI50 (NCI-H522): 25.8 µM (inactive)
- GI50 (RXF 393): 23.5 µM (inactive)
- GI50 (COLO 205): 20.2 µM (inactive)
- GI50 (EKVX): 31.9 µM (inactive)
- GI50 (HOP-62): 34.8 µM (inactive)

Structure (SMILES): CO[C@@]12C[C@H](CNC(=O)c3ccc[nH]3)O[C@@H]1NC(=O)N2
- GI50 (NCI-H460): > 100 µM (inactive)
- GI50 (SNB-75): > 100 µM (inactive)
- GI50 (SN12C): > 100 µM (inactive)
- GI50 (LOX IMVI): > 100 µM (inactive)
- GI50 (HCT-116): > 100 µM (inactive)
- GI50 (HCT-15): > 100 µM
- GI50 (SK-MEL-5): > 100 µM (inactive)
- GI50 (MOLT-4): > 100 µM (inactive)
- GI50 (T47D): > 100 µM (inactive)
- GI50 (SNB-19): > 100 µM (inactive)
- GI50 (NCI/ADR-RES): > 100 µM (inactive)
- GI50 (MDA-MB-435): > 100 µM (inactive)
- GI50 (DU-145): > 100 µM (inactive)
- GI50 (786-0): > 100 µM (inactive)
- GI50 (TK-10): > 100 µM (inactive)
- GI50 (SW-620): > 100 µM (inactive)
- GI50 (NCI-H226): > 100 µM (inactive)
- GI50 (K562): > 100 µM (inactive)
- GI50 (HOP-92): > 100 µM (inactive)
- GI50 (IGROV-1): > 100 µM (inactive)
- GI50 (SR): > 100 µM (inactive)
- GI50 (Hs-578T): > 100 µM (inactive)
- GI50 (KM12): > 100 µM (inactive)
- GI50 (SK-OV-3): > 100 µM (inactive)
- GI50 (OVCAR-8): > 100 µM (inactive)
- GI50 (UACC-257): > 100 µM (inactive)
- GI50 (UACC-62): > 100 µM (inactive)
- GI50 (M14): > 100 µM (inactive)
- GI50 (RPMI-8226): > 100 µM (inactive)
- GI50 (MCF7): > 100 µM (inactive)
- GI50 (PC-3): > 100 µM (inactive)
- GI50 (SK-MEL-2): > 100 µM (inactive)
- GI50 (OVCAR-4): > 100 µM (inactive)
- GI50 (HT-29): > 100 µM (inactive)
- GI50 (ACHN): > 100 µM (inactive)
- GI50 (A498): > 100 µM (inactive)
- GI50 (HL-60): > 100 µM (inactive)
- GI50 (NCI-H23): > 100 µM (inactive)
- GI50 (OVCAR-3): > 100 µM (inactive)
- GI50 (CAKI-1): > 100 µM (inactive)
- GI50 (BT-549): > 100 µM (inactive)
- GI50 (OVCAR-5): > 100 µM (inactive)
- GI50 (SK-MEL-28): > 100 µM (inactive)
- GI50 (MDA-MB-231): > 100 µM (inactive)
- GI50 (SF-295): > 100 µM (inactive)
- GI50 (SF-539): > 100 µM (inactive)
- GI50 (SF-268): > 100 µM (inactive)
- GI50 (Malme-3M): > 100 µM (inactive)
- GI50 (UO-31): > 100 µM (inactive)
- GI50 (U-251): > 100 µM (inactive)
- GI50 (A549): > 100 µM (inactive)
- GI50 (HCC 2998): > 100 µM (inactive)
- GI50 (NCI-H522): > 100 µM (inactive)
- GI50 (COLO 205): > 100 µM (inactive)
- GI50 (EKVX): > 100 µM (inactive)
- GI50 (HOP-62): > 100 µM (inactive)

Structure (SMILES): Brc1ccc2[nH]cc([C@H]3CN[C@@H](c4c[nH]c5ccc(Br)cc45)CN3)c2c1
- GI50 (NCI-H460): 2.36 µM (inactive)
- GI50 (SNB-75): 1.83 µM (inactive)
- GI50 (SN12C): 2.91 µM (inactive)
- GI50 (LOX IMVI): 1.44 µM (inactive)
- GI50 (HCT-116): 2.02 µM (inactive)
- GI50 (HCT-15): 2.04 µM
- GI50 (SK-MEL-5): 2.56 µM (inactive)
- GI50 (MOLT-4): 2.11 µM (inactive)
- GI50 (T47D): 2.66 µM (inactive)
- GI50 (SNB-19): 2.83 µM (inactive)
- GI50 (NCI/ADR-RES): 1.93 µM (inactive)
- GI50 (MDA-MB-435): 1.77 µM (inactive)
- GI50 (CCRF-CEM): 2.22 µM (inactive)
- GI50 (DU-145): 2.23 µM (inactive)
- GI50 (786-0): 2.29 µM (inactive)
- GI50 (TK-10): 2.26 µM (inactive)
- GI50 (SW-620): 2.51 µM (inactive)
- GI50 (NCI-H226): 2.45 µM (inactive)
- GI50 (K562): 1.99 µM (inactive)
- GI50 (HOP-92): 1.87 µM (inactive)
- GI50 (IGROV-1): 1.87 µM (inactive)
- GI50 (SR): 1.92 µM (inactive)
- GI50 (Hs-578T): 4.31 µM (inactive)
- GI50 (KM12): 1.76 µM (inactive)
- GI50 (SK-OV-3): 2.49 µM (inactive)
- GI50 (OVCAR-8): 1.79 µM (inactive)
- GI50 (UACC-257): 3.64 µM (inactive)
- GI50 (UACC-62): 5.04 µM (inactive)
- GI50 (M14): 1.81 µM (inactive)
- GI50 (RPMI-8226): 2.16 µM (inactive)
- GI50 (MCF7): 1.58 µM (inactive)
- GI50 (PC-3): 1.88 µM (inactive)
- GI50 (SK-MEL-2): 2.09 µM (inactive)
- GI50 (OVCAR-4): 1.94 µM (inactive)
- GI50 (HT-29): 1.97 µM (inactive)
- GI50 (ACHN): 1.93 µM (inactive)
- GI50 (A498): 2 µM (inactive)
- GI50 (HL-60): 1.77 µM (inactive)
- GI50 (NCI-H23): 1.6 µM (inactive)
- GI50 (OVCAR-3): 1.79 µM (inactive)
- GI50 (CAKI-1): 1.82 µM (inactive)
- GI50 (BT-549): > 41.1 µM (inactive)
- GI50 (OVCAR-5): 2.75 µM (inactive)
- GI50 (SK-MEL-28): 8.05 µM (inactive)
- GI50 (MDA-MB-231): 1.62 µM (inactive)
- GI50 (SF-295): 4.97 µM (inactive)
- GI50 (SF-539): 2 µM (inactive)
- GI50 (SF-268): 2.65 µM (inactive)
- GI50 (Malme-3M): 2.2 µM (inactive)
- GI50 (UO-31): 1.91 µM (inactive)
- GI50 (U-251): 2.12 µM (inactive)
- GI50 (A549): 2.52 µM (inactive)
- GI50 (HCC 2998): 1.69 µM (inactive)
- GI50 (NCI-H522): 1.79 µM (inactive)
- GI50 (RXF 393): 2.65 µM (inactive)
- GI50 (COLO 205): 1.73 µM (inactive)
- GI50 (EKVX): 2.61 µM (inactive)
- GI50 (HOP-62): 3.37 µM (inactive)
